Test results published in US8513295B2, “Viral and fungal inhibitors” (Georgetown University, priority 2008, dated 2013).

Target: DENV protease (Dengue virus type 2, UniProt P14340)
Experiment: DENV protease inhibition activity
Format: biochemical
Conditions: not given
Procedure: (§1) Compounds I-1 to I-14 and II-1 to II-4 (which were synthesized using methods of organic synthesis as discussed above) were analyzed by in vitro protease assays performed in opaque 96-well plates. The enzyme kinetics was done under steady-state conditions. The standard reaction mixtures (50 μL) containing 200 mM Tris-HCl, pH 9.5, 6 mM NaCl, 30% glycerol, 67 nM of WNV protease and 50 μM inhibitor in each assay were incubated for 15 min at room temperature. Reactions were started by the addition of the substrate Boc-Gly-Lys-Arg-AMC at 100 μM final concentration and incubated at room temperature for 15 min. The absorbance of each well containing para-nitroaniline was measured at 405 nm using a spectrophotometer (Molecular Devices, Sunnyvale, Calif.); the fluorescence of AMC released from the WNV substrate was measured using a Tecan Geneios (Durham, N.C.) spectrofluorometer at excitation and emission wavelengths of 390 nm and 420 nm, respectively. Similarly, the WNV protease activity was also determined using the fluorogenic tetrapeptide substrate containing the P4-P1 residues and the fluorogenic group, 4-methoxy-β-naphthylamide (MNA), at P1′ position (Z-Val-Lys-Lys-Arg-MNA) (SEQ ID NO:1). Fluorescence was measured using a spectrofluorometer (Molecular Devices) at excitation and emission wavelengths of 290 and 420 nm, respectively. Fluorescence values obtained with no inhibitor control were taken as 100% and those in the presence of inhibitors were plotted as the percent inhibition of the control.
(§2) Compounds I-2, I-4, I-6, I-7, I-8, I-9, I-23, I-26, I-27, I-28, I-29, I-30, I-31, I-32, III-1, III-2, VI-1, VI-2, VI-3, and VI-4 were also tested for WNV protease inhibition activity according to the procedure detailed above. Further, Compounds I-28, V-1, VI-2, VI-3, VI-4, and IX-1 were tested for DENV protease inhibition activity. The structures of Compounds I-2, I-4, I-6, I-7, I-8, I-9, I-23, I-26, I-27, I-28, I-29, I-30, I-31, I-32, III-1, III-2, VI-1, VI-2, VI-3, VI-4, and IX-1 are provided above.

Sequence of DENV protease (P14340 1394-1440): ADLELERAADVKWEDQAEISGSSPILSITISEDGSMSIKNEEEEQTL
Sequence of DENV protease (P14340 1476-1653): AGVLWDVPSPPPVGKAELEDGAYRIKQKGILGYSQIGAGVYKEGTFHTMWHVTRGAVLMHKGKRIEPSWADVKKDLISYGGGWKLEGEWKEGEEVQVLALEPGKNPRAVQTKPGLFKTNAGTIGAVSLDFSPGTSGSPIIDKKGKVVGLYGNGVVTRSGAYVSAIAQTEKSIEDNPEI

How did the IC50 turn out when `O=c1c2ccccc2sn1C(Cc1ccccc1)c1nnc(-c2cccc(F)c2)o1` (centres unmarked) [VI-4] was run?
The IC50 was 11.4 µM.

For `O=C(CSc1nc2ccccc2c(=O)[nH]1)Nc1cccc(Oc2ccccc2)c1` [IX-1], which IC50 is on record?
The IC50 was 89 µM.

Which IC50 does the source give for `O=C(CCC(C(=O)Nc1ccc(Oc2ccccc2)cc1)N1Cc2ccccc2C1=O)OCc1ccccc1` (centres unmarked) [Compound I-28] here?
The IC50 was 45 µM.

Which IC50 does the source give for `O=c1c2ccccc2sn1C(Cc1ccccc1)c1nnc(Cc2ccccc2)o1` (centres unmarked) [VI-2] here?
The IC50 was 9.6 µM.

For `O=C1c2ccccc2CN1C(Cc1ccccc1)c1nnc(-c2cccc(Cl)c2)o1` (centres unmarked) [Compound V-1], which IC50 is on record?
The IC50 was 12.2 µM.

`O=c1c2ccccc2sn1C(Cc1ccccc1)c1nnc(-c2cccc(Cl)c2)o1` (centres unmarked) [VI-3] was tested. Which IC50 did it give?
Its IC50 is 10.6 µM.

Target: T1, WNV protease (UniProt Q9Q6P4)
T1 construct: "expression and purification of WNV (EG101 strain) were similar to those described elsewhere by Mueller et al."
T1 sequence (Q9Q6P4 1506-2124): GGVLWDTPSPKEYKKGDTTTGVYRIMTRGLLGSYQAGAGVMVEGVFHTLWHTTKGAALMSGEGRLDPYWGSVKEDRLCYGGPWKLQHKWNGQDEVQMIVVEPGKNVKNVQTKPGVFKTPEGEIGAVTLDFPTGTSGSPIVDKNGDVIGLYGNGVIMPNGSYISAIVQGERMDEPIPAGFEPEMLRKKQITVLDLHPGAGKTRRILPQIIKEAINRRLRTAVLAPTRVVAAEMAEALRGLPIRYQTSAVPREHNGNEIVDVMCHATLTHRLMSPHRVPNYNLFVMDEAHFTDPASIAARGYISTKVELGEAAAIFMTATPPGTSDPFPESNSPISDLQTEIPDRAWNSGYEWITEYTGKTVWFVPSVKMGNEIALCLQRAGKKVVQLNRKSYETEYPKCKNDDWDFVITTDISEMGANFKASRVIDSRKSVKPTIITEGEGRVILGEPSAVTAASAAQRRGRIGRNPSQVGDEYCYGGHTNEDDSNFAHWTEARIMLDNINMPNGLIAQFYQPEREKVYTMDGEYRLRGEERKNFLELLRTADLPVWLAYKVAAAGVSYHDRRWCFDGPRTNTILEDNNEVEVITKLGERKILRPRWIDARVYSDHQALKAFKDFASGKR
Experiment: in vitro WNV protease assay (Example 2)
Format: biochemical, West Nile Virus (EG101 strain)
Conditions: Protease Inhibition Activity, Table 1; read-out: IC50 (μM) WNVpro
Procedure: Procedures for expression and purification of WNV (EG101 strain) were similar to those described elsewhere by Mueller et al., Int. J. Biochem. Cell. Biol., 39: 606-14 (2007). Briefly, E. coli Top10 F′ cells (Invitrogen, Carlsbad, Calif.) were transformed with the protease expression plasmid. Cells were grown at 37° C. until the OD600 was ˜0.5. Cells were then induced with isopropyl-1-thio-β-D-galactopyranoside (American Bioanalytical, Natick, Mass.) (0.5 mM), and incubated for 4 h at 37° C. Cells were harvested by centrifugation (5000×g) for 15 min at 4° C., washed once with a buffer containing 50 mM Tris-HCl, pH 7.5, and 200 mM NaCl, centrifuged at 5000×g for 15 min at 4° C., and stored at −80° C. until used.
Proteases were purified by suspending bacterial pellets in 50 mM Hepes, pH 7.0, 500 mM NaCl, (buffer A) with 0.05 mg/ml lysozyme. Cells were incubated for 30 min on ice after addition of 10% stock solution of Triton X-100 (final concentration of 0.5%). Cells were disrupted by sonication for 2 min and the soluble fraction was collected after centrifugation (15,000×g) for 30 min at 4° C. The soluble fraction was incubated for 1 h at 4° C. with Talon resin (BD Bioscience, San Jose, Calif.) which was pre-equilibrated in buffer A. The affinity resin was centrifuged at (400×g) for 10 min at 4° C., washed three times with buffer A, and packed into a column. Washing of the column was continued with the buffer A containing 10 mM imidazole, followed by elution of the protease with buffer A containing 150 mM imidazole. The protease was concentrated and further purified by Sephadex G-75 gel filtration chromatography. The purified protease fractions were pooled and dialyzed against a buffer containing 50 mM Tris-HCl pH 7.5 and 300 mM NaCl (4×1L). Aliquots (100 μl) were frozen at −80° C.
as §1, §2

`O=C(Nc1ccc(Oc2ccccc2)cc1)C(Cc1ccccc1)n1sc2ccccc2c1=O` (centres unmarked) [Compound I-32] was tested. Which IC50 did it give?
The IC50 was 6.6 µM.

Which IC50 does the source give for `O=C(Nc1ccc(Oc2ccccc2)cc1)C(C(=O)OCc1ccccc1)n1sc2ccccc2c1=O` (centres unmarked) [Compound I-29] here?
The IC50 was 9 µM.

With `O=C(Nc1cccc(Oc2ccccc2)c1)C(Cc1ccccc1)n1sc2ccccc2c1=O` (centres unmarked) [Compound I-31] as the molecule, how does the IC50 read?
Its IC50 is 2.6 µM.

How did the IC50 turn out when `COc1ccc(Cc2nnc(C(Cc3ccccc3)n3sc4ccccc4c3=O)o2)cc1` (centres unmarked) [VI-1] was run?
The IC50 was 26 µM.

With `O=C(CCC(C(=O)Nc1cccc(Oc2ccccc2)c1)N1Cc2ccccc2C1=O)OCc1ccccc1` (centres unmarked) [Compound I-27] as the molecule, how does the IC50 read?
Its IC50 is 22.7 µM.

How did the IC50 turn out when `O=c1c2ccccc2sn1C(Cc1ccccc1)c1nnc(-c2cccc(F)c2)o1` (centres unmarked) [VI-4] was run?
Its IC50 is 9.8 µM.

How did the IC50 turn out when `O=C(Nc1cccc(Oc2ccccc2)c1)C(Cc1ccccc1)N1Cc2ccccc2C1=O` (centres unmarked) [Compound I-2] was run?
Its IC50 is 11.1 µM.

With `O=C(CNC(=O)Nc1ccc(Oc2ccccc2)cc1)Nc1ccccc1` [Compound I-9] as the molecule, how does the IC50 read?
Its IC50 is 31.2 µM.

`O=C(CSc1nc2ccccc2s1)Nc1nc2ccccc2s1` [III-2] was tested. Which IC50 did it give?
Its IC50 is 34.1 µM.

For `O=C(CCCCc1ccccc1)Nc1cccc(Oc2ccccc2)c1` [Compound I-23], which IC50 is on record?
The IC50 was 38.6 µM.

Which IC50 does the source give for `O=C(CSc1nc(-c2ccccc2)no1)Nc1nc2ccccc2[nH]1` [III-1] here?
The IC50 was 14.7 µM.

For `O=C(Nc1ccccc1Oc1ccccc1)C(Cc1ccccc1)n1sc2ccccc2c1=O` (centres unmarked) [Compound I-30], which IC50 is on record?
The IC50 was 6 µM.

`O=C(CC(C(=O)Nc1cccc(Oc2ccccc2)c1)N1Cc2ccccc2C1=O)OCc1ccccc1` (centres unmarked) [Compound I-26] was tested. Which IC50 did it give?
Its IC50 is 13 µM.

With `O=C(CNC(=O)Nc1ccc(Oc2ccccc2)cc1)NCc1ccccc1` [Compound I-7] as the molecule, how does the IC50 read?
The IC50 was 26.1 µM.

For `O=C(CCC(C(=O)Nc1ccc(Oc2ccccc2)cc1)N1Cc2ccccc2C1=O)OCc1ccccc1` (centres unmarked) [Compound I-28], which IC50 is on record?
Its IC50 is 15.5 µM.

With `O=C(Nc1ccc(Oc2ccccc2)cc1)C(Cc1ccccc1)N1Cc2ccccc2C1=O` (centres unmarked) [Compound I-4] as the molecule, how does the IC50 read?
The IC50 was 19.7 µM.

With `O=c1c2ccccc2sn1C(Cc1ccccc1)c1nnc(Cc2ccccc2)o1` (centres unmarked) [VI-2] as the molecule, how does the IC50 read?
Its IC50 is 2.1 µM.

How did the IC50 turn out when `O=C(CNC(=O)Nc1cccc(Oc2ccccc2)c1)NCc1ccccc1` [Compound I-6] was run?
The IC50 was 22.1 µM.

Which IC50 does the source give for `O=C(CNC(=O)Nc1cccc(Oc2ccccc2)c1)Nc1ccccc1` [Compound I-8] here?
The IC50 was 22.9 µM.

`O=c1c2ccccc2sn1C(Cc1ccccc1)c1nnc(-c2cccc(Cl)c2)o1` (centres unmarked) [VI-3] was tested. Which IC50 did it give?
Its IC50 is 7.6 µM.
